Results as given in ChEMBL document CHEMBL1201862, “PubChem BioAssay data set” (2004).
Activity calls are given as the source filed them.

Legend:
[1] = molecular target: T1, Protein skinhead-1 (Caenorhabditis elegans, UniProt P34707); format: functional
T1 sequence (P34707 whole entry): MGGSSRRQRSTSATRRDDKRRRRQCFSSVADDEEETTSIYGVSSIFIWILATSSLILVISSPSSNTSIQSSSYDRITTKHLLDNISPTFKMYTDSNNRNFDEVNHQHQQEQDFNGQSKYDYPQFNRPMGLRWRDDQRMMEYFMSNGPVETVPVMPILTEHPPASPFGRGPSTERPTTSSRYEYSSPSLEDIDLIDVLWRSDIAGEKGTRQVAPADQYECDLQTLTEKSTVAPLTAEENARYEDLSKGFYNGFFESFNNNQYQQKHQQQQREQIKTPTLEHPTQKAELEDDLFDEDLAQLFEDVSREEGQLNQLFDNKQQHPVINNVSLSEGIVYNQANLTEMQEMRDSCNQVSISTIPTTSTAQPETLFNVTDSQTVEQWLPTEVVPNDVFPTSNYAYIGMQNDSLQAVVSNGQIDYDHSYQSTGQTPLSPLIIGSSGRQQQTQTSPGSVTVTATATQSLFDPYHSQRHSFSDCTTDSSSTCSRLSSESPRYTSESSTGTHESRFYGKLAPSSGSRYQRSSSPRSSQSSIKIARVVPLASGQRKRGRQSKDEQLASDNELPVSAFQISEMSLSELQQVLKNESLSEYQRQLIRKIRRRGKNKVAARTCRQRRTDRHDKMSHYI

[2] = molecular target: T2, Cytochrome P450 1A2 (Homo sapiens, UniProt P05177);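 note: PubChem cytochrome P450 panel assay, CYP1A2 panel member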
T2 sequence (P05177 whole entry): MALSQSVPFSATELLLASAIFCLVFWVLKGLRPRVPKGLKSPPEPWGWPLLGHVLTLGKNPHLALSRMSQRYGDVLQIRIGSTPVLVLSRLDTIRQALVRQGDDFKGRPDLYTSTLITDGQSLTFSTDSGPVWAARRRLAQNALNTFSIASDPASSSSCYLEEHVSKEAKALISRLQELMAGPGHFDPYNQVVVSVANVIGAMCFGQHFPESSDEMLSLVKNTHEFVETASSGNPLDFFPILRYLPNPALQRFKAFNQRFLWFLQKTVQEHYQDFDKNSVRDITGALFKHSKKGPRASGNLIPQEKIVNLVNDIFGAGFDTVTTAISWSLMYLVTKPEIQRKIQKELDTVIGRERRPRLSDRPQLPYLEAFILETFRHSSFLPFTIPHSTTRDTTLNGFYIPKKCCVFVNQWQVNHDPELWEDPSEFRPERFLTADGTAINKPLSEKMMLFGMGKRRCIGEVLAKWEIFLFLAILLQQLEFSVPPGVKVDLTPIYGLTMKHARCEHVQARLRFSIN

[3] = molecular target: Cytochrome P450 2D6 (Homo sapiens, UniProt P10635);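 note: CYP2D6 member of a cytochrome P450 panel assay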
[4] = molecular target: T3, Calpain-2 catalytic subunit (Sus scrofa, UniProt P43367); experiment: m-calpain protease blockers, concentration series – biochemical, fluorogenic peptide substrate, dose response (AID 1420); format: functional
T3 sequence (P43367 whole entry): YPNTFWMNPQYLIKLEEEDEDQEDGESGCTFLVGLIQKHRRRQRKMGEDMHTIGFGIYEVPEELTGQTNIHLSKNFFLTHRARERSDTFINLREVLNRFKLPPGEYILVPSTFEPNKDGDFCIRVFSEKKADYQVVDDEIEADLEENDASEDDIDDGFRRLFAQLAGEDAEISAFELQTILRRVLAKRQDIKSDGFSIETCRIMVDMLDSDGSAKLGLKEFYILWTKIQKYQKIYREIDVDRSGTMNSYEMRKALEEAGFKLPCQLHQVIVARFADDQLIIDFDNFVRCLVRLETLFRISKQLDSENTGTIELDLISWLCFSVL

[5] = molecular target: Luciferin 4-monooxygenase (Photinus pyralis, UniProt P08659); experiment: inhibition of purified Photinus pyralis luciferase – biochemical, luminescence, dose response (AID 1891)
[6] = Luminescence Cell-Based Dose Confirmation HTS to Identify Inhibitors of Platelet Dense Granule Release. [Related pubchem assays: 1663 (Primary HTS), 1678 (Summary of Project)]; format: functional
[7] = molecular target: T4, Corticotropin-releasing factor receptor 2/Corticotropin-releasing factor-binding protein (Homo sapiens, UniProt P24387+Q13324); experiment: activators of CRF receptor 2 with binding protein – uHTS hits, confirmation (AID 602473); format: functional; details: read-out: EC50_Mean
T4 sequence (Q13324 whole entry): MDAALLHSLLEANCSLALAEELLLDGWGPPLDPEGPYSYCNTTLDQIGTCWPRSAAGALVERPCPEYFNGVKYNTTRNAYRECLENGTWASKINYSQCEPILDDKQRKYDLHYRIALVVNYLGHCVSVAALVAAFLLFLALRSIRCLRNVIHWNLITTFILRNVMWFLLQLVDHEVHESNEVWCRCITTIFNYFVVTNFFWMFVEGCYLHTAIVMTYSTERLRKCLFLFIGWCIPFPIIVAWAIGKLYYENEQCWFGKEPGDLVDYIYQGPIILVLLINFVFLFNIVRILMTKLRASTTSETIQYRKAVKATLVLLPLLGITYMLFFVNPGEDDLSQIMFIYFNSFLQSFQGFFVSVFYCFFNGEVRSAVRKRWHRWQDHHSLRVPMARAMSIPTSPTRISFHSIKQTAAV
T4 sequence (P24387 whole entry): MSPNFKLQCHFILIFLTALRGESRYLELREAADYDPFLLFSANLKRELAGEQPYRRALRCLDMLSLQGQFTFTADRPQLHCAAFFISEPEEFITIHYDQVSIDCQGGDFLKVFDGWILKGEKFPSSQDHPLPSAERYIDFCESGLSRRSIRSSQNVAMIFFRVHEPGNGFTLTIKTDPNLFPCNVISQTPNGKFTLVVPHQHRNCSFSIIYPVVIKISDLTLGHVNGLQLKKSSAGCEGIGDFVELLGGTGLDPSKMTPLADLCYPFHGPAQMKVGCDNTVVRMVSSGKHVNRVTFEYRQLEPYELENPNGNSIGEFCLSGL

[8] = cells; format: functional
[9] = molecular target: Cytochrome P450 2C19 (Homo sapiens, UniProt P33261); experiment: Cytochrome panel assay with activity outcomes. Panel member name: p450-cyp2c19 Compounds with AC50 equal or less than 10 uM are considered active; format: functional
[10] = tested on: Streptococcus; experiment: GAS UMAA2166 growth inhibition – luminescence, BacTiterGlo, counter-screen for streptokinase expression inhibitor project, dose response (AID 1915); format: functional, organism-based;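 note: potency for reduction of bacterial viability or growth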
[11] = tested on: Streptococcus sp. 'group A'; experiment: Streptococcus pyogenes SK(-)GAS viability under kanamycin – luminescence, BacTiterGlo, confirmation, counter-screen for streptokinase expression inhibitor project, dose response (AID 1900); format: functional, organism-based
[12] = molecular target: T5, Streptokinase A (Streptococcus pyogenes serotype M1, UniProt P10520); experiment: viability-normalized secreted streptokinase activity reduction – plasminogen activation absorbance, OD405, dose response (AID 1914); format: functional, Streptococcus pyogenes M1 GAS;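 note: secreted streptokinase activity via plasminogen activation per viability signal from cell pellet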
T5 sequence (P10520 whole entry): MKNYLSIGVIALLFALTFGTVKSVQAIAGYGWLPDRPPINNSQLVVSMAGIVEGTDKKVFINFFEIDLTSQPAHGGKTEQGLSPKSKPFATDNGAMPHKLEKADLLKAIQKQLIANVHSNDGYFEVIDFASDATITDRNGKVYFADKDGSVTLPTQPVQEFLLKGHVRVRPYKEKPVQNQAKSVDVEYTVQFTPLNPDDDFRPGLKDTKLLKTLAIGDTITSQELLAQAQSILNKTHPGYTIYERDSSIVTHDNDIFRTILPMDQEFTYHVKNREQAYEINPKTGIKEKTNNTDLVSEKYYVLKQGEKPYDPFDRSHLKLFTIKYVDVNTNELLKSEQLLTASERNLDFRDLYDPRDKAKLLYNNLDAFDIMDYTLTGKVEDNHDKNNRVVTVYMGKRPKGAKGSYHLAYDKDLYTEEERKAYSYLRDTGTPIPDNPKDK

[13] = Luminescence Cell-Based Dose Retest to Confirm Inhibitors of Cancer Stem Cells. [Related pubchem assays (depositor defined):AID2717, AID2721]; format: functional; details: Homo sapiens
[14] = molecular target: Cytochrome P450 3A4 (Homo sapiens, UniProt P08684);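 note: CYP3A4 tested as one member of a cytochrome P450 panel screen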
Cytochrome P450 3A4, sequence (P08684 whole entry): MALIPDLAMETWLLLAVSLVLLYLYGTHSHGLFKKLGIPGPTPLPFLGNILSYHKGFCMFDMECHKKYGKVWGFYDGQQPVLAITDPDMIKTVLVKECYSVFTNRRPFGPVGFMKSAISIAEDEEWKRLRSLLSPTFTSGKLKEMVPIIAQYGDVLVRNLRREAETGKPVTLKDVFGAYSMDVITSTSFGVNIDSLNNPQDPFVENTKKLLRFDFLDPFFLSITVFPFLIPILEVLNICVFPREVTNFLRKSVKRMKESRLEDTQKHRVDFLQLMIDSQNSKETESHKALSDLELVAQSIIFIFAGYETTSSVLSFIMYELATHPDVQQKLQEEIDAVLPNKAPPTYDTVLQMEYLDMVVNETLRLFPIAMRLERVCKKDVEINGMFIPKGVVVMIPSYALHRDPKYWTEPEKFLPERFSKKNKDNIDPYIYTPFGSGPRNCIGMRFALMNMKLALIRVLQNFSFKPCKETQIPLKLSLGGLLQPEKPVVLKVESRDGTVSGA

Cytochrome P450 2D6, sequence (P10635 whole entry): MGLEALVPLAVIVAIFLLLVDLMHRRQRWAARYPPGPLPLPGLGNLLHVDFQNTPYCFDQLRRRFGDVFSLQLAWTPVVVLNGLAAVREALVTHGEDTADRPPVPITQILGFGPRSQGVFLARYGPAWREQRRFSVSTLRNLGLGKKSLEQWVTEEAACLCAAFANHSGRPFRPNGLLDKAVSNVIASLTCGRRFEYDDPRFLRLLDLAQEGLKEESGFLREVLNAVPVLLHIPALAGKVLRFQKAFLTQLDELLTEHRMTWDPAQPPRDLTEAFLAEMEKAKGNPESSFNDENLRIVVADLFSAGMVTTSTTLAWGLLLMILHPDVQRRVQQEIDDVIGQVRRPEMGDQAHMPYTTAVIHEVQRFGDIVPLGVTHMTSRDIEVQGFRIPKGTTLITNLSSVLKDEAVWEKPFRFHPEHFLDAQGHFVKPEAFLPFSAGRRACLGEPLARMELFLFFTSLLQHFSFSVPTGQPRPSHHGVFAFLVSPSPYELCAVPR
Luciferin 4-monooxygenase, sequence (P08659 whole entry): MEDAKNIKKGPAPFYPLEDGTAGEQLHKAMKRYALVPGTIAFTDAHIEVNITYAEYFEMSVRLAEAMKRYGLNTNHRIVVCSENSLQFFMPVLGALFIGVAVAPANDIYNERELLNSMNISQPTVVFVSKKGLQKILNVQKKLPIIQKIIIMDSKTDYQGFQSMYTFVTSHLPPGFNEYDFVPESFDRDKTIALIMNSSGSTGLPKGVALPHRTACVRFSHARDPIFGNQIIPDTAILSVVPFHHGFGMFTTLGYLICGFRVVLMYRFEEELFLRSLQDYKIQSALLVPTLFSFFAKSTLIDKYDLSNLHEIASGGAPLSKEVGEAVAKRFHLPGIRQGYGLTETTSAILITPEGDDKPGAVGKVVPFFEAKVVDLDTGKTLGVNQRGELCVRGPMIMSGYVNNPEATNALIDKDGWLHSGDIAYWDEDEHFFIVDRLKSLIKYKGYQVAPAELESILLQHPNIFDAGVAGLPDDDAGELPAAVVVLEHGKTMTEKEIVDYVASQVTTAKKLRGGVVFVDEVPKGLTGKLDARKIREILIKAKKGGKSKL
Cytochrome P450 2C19, sequence (P33261 whole entry): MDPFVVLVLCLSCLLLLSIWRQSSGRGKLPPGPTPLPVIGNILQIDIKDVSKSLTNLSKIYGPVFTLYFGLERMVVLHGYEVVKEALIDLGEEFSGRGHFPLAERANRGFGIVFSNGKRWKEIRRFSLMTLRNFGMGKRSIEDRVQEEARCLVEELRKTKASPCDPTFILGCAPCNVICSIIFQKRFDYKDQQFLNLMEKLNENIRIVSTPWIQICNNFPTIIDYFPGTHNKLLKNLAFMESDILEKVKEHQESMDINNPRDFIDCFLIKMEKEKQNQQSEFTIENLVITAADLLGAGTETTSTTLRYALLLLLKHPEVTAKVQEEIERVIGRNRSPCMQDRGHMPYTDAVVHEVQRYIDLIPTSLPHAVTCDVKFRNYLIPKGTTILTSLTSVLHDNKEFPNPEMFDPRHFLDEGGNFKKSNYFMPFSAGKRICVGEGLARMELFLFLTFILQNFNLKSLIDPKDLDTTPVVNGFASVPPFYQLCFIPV

## Cc1cc(/C=C(\C#N)C(=O)Nc2ccc(F)cc2)c(C)n1-c1ccc(N2CCOCC2)c([N+](=O)[O-])c1
[1]
  IC50: > 100 µM (inactive)

## COc1ccc2[nH]cc(CCNc3ncnc4ccc(-c5ccc(C(=O)N(C)C)cc5)cc34)c2c1
[2]
  AC50: 12.6 µM (inconclusive)
[3]
  AC50: 25.1 µM (inconclusive)

## CC(/C=C(\O)c1ccc(C)cc1)=N\c1cccc(O)c1
[4]
  IC50: 4.68 µM (not active)

## Cc1ccc(CNC(=O)c2ccc3c(=O)n(CC4CCCO4)c(=S)[nH]c3c2)cc1 (configuration not stated)
[4]
  IC50: 1.19 µM (not active)

## O=C(NCCCN1CCOCC1)C1(c2ccccc2)CCCC1
[5]
  EC50: > 112 µM (not active)
[6]
  EC50: > 112 µM (not active)

## O=C(CCCCl)Oc1ccc2cc(-c3ccc4ccccc4n3)c(=O)oc2c1
[7]
  EC50: 13.7 µM (active)

## Cc1ccc(/C=C2/C(=O)NC(=O)N(CCc3ccc(F)cc3)C2=O)s1
[8]
  IC50: 39.2 µM (active)

## O=C(O)[C@@H]1[C@@H]2C[C@H]3c4[nH]c5ccccc5c4CCN3C[C@@H]2CC[C@@H]1O
[2]
  AC50: 12.6 µM (inconclusive)
[3]
  AC50: 7.94 µM (inconclusive)

## O=S(=O)(Nc1ccc(-c2ccc3nncn3n2)cc1)c1ccccc1Cl
[5]
  EC50: > 112 µM (not active)
[6]
  EC50: 51.9 µM (active)

## CCn1nc(CCC(=O)O)c2ccccc2c1=O
[1]
  IC50: > 100 µM (inactive)

## COC(=O)c1cc2sccc2n1Cc1ccc(C)cc1
[1]
  IC50: > 100 µM (inactive)

## COc1ccc(/C=N/N=C(\N)c2nonc2N)cc1
[5]
  EC50: 3.82 µM (active)
[6]
  EC50: 2.67 µM (active)

## CN(CCc1ccccn1)C(=S)NC(=O)c1ccco1
[4]
  IC50: 19 µM (not active)

## CC1(C)N=C(N)N=C(N)N1c1cccc(OCc2cccc([N+](=O)[O-])c2)c1
[9]
  AC50: inconclusive
[2]
  AC50: 5.01 µM (inconclusive)
[3]
  AC50: 3.16 µM (inconclusive)

## CNC(=O)c1c(NC(=O)c2ccc(N3C(=O)CCC3=O)cc2)sc2c1CCC(C)C2 (configuration not stated)
[10]
  EC50: 103 µM (active)
[11]
  EC50: 20.7 µM (active)
[1]
  IC50: > 100 µM (inactive)
[12]
  EC50: > 150 µM (not active)

## COc1ccc(C(NC(=O)c2ccc(-c3ccccc3)cc2)c2ccccc2)cc1 (configuration not stated)
[4]
  IC50: > 50 µM (not active)

## COc1ccc(C2=Nc3cccc4cccc(c34)N2)cc1
[3]
  AC50: 1.41 µM (inconclusive)

## O=c1cc(N2CCCCC2)c(-c2ccccc2)nn1Cc1cccc(F)c1
[13]
  AC50: 4.74 µM (active)
[4]
  IC50: > 50 µM (not active)

## Cc1c(Cl)cccc1NC(=O)CC1NCCNC1=O (configuration not stated)
[1]
  IC50: > 100 µM (inactive)
[14]
  AC50: 20 µM (inconclusive)
[9]; read-out: AC50
  AC50: 39.8 µM (inconclusive)
